How the values were obtained:
[1] = Saccharide concentration and osmotic pressure of hypertonic solutions (measured values); type: physicochemical
Protocol: When the hypertonic solution having an osmotic pressure of 370 mOsm/kg or higher is prepared by adding a saccharide to the culture medium, the method of the present invention is characterized in that the hypertonic solution contains the saccharide in 0.1-1 M (mol/L), preferably 0.1-0.6 M (mol/L). The relation between the concentration of saccharide (mol/L) and the osmotic pressure (mOsm/kg) can be approximated by a substantially straight line; a hypertonic solution containing 0.1 M saccharide corresponds to one having an osmotic pressure of approximately 370 mOsm/kg and a hypertonic solution containing 1 M saccharide corresponds to one having an osmotic pressure of approximately 1300-1600 mOsm/kg.
Hypertonic solutions were prepared using various saccharides and the relation between the saccharide concentration and the osmotic pressure is shown in the following table for typical saccharides.

[2] = test system: human embryonic stem cell-derived embryoid bodies; experiment: Cell death inducing effect on residual stem cells in human embryonic stem cell-derived embryoid bodies and enrichment of cardiomyocytes; type: cell-based; details: 0.45 M or 0.6 M
Protocol: After passaging, human embryonic stem cells were subjected to suspension culture in a culture medium [α-MEM (minimum essential medium) (SIGMA), supplemented with 10% FBS (EQUITEC BIO), 100 units/ml penicillin, and 50 μg/ml streptomycin (GIBCO)] to induce formation of embryoid bodies. At 14-18 days after the start of differentiation (the start of suspension culture), autonomously pulsating cells started to differentiate, which was confirmed in a separate step that they were cardiomyocytes.
The embryoid bodies still maintained an autonomously pulsating ability after the passage of 3 months from the start of differentiation. They were partially treated with 0.1% collagenase (Wortington) and 0.1% trypsin (DIFCO) to be dispersed as fine cell masses. The cell masses were divided into two groups; one group was treated with 0.45 M mannitol (approximately equivalent to 720 mOsm/kg) for 2 hours, and the other group (control) was not treated with mannitol but treated with the same amount of a solution having the physiological osmotic pressure, Ads buffer (116.4 mM NaCl, 5.4 mM KCl, 5.6 mM dextrose, 10.9 mM NaH2PO4, 405.7 μM MgSO4, 20 mM Hepes, pH 7.3) for 2 hours. After the treatment, both cell groups were subjected to adherent culture for 3 days in a DMEM solution supplemented with 10% fetal calf serum.
The mannitol-treated cells and the control cells were analyzed in accordance with the experimental procedure of Example 1 using a mouse anti-Oct-3/4 monoclonal antibody (No. 084720 of BD Transduction Laboratories) and a goat anti-Nkx 2.5 antibody (No. N-19 of Santacruz) as primary antibodies, for the expression of the Oct-3/4 protein which was both a marker of embryonic stem cells and an intranuclear transcription factor, and for the expression of the Nkx 2.5 protein which was both a cardiomyocyte marker and an intranuclear transcription factor, respectively. The results for the control group, one of the two divided samples, are shown in FIG. 10 and the results for the test group subjected to 2-hr treatment with mannitol are shown in FIG. 11. The upper panels of FIG. 10 show the results of cardiomyocytes and the lower panels show the results of embryonic stem cells.
The embryoid bodies still maintained an autonomously pulsating ability after the passage of 3 months from the start of differentiation. They were partially treated with 0.1% collagenase (Wortington) and 0.1% trypsin (DIFCO) to be dispersed as fine cell masses. The cell masses were divided into two groups; one group was treated with saccharides (sugar alcohols: sorbitol, xylitol, and glycerol; sugars: sucrose and glucose; betaines: trimethylglycine) for 12 hours in an amount of 0.45 M (approximately equivalent to 700-780 mOsm/kg) or 0.6 M (approximately equivalent to 850-1000 mOsm/kg), and the other group (control) was not treated with those saccharides but treated with the same amount of a solution having the physiological osmotic pressure, Ads buffer (116.4 mM NaCl, 5.4 mM KCl, 5.6 mM dextrose, 10.9 mM NaH2PO4, 405.7 μM MgSO4, 20 mM Hepes, pH 7.3) for 2 hours. After the treatment, both cell groups were cultured for 12 hours in a DMEM solution supplemented with 10% fetal calf serum.
Samples of differentiated cells derived from human embryonic stem cells, as treated with 0.45 M glycerol (approximately equivalent to 710 mOsm/kg) or 0.6 M glycerol (approximately equivalent to 870 mOsm/kg), were examined for their morphology under the culture conditions. […] The cell death inducing effect was noticeable when the cells were exposed to glycerol for 10 hours and longer (FIG. 14).

[3] = test system: human embryonic stem cells; experiment: Cell death inducing effect on human embryonic stem cells (TMRM FACS, 5-day adherent culture); type: cell-based; details: 0.45 M, 2 hours
Protocol: The human embryonic stem cells were obtained from Stem Cell Research Center, Institute for Frontier Medical Sciences, Kyoto University (ES cell center sponsored by the National Bio-Resource Project) (Suemori, H et al., Biochem. Biophys. Res. Commun., Vol. 345, 2006, pp. 926-932). The cells were cultured basically in accordance with the method described in this document. To be more specific, the human embryonic stem cells were cultured to maintain their undifferentiated state using mouse embryonic fibroblasts (MEF) that had been inactivated for growth by treatment with mitomycin C. The culture medium of F12/DMEM (1:1) (SIGMA; Product No. D6421), supplemented with 20% KO-SERUM (GIBCO), 1.6 mM L-glutamine, 0.1 mM non-essential amino acids (MEM), 0.1 mM β-mercaptoethanol (2-ME; Sigma), 100 IU/ml penicillin, 100 μg/ml streptomycin sulfate, and recombinant human basic fibroblast growth factor (bFGF; Reprotech) was used. Upon passaging, the cells were treated with 0.1% type III collagenase (Wortington) at 37° C. for 10 minutes to separate embryonic stem cell colonies. After passaging, the cells were dispersed with each other using TE (0.25% trypsin (GIBCO) and 1 mM EDTA) and in accordance with a published document (Watanabe, K. et al., Nat. Biotechnol., 2007, 25: 681-686, Epub 2007 May 27), 10 μM of a ROCK inhibitor (Y27632) was added to suppress cell death. At the same time, the mitochondria in the live cells were stained with 50 nM TMRM. Part of the stained cells were treated with an α-MEM culture medium containing 0.45 M mannitol (approximately equivalent to 720 mOsm/kg) for 2, 3 or 4 hours and three samples were prepared from these cells; the rest of the stained cells were treated with a mannitol-free α-MEM culture medium for 2 hours and a sample was prepared from these cells as a control. In the control, cells were aggregated with each other to make masses, so before FACS analysis, the treated groups and the control were given another treatment with trypsin and EDTA to disperse the cells. The cells treated with mannitol for 2, 3 or 4 hours and the control cells were analyzed by FACS for the level of mitochondrial membrane potential on the basis of the fluorescent intensity of TMRM to check the state of survival of the stem cells; the results are shown in FIG. 7. […] In addition, the TMRM-stained cells were photographed, both for the case of 2-h treatment with mannitol and for the control (FIG. 8)). […] Changes in the mitochondrial membrane potential were observed using the experimental technique of Example 5, provided that the human embryonic stem cells were treated not with mannitol, but with 0.45 M of various other saccharides (sugar alcohols: sorbitol and xylitol; sugars: sucrose and glucose; betaines: trimethylglycine) (approximately equivalent to 750-780 mOsm/kg) for 2 hours.

[4] = saccharide concentration 0.45 M in culture medium
[5] = saccharide concentration 0.6 M in culture medium
[6] = saccharide concentration 0.9 M in culture medium

Structure (SMILES) | Osmotic pressure [1, 4] [mOsm/kg] | Osmotic pressure ([1]; saccharide concentration 0.45 M in culture medium, listed as Glycerol) [mOsm/kg] | Osmotic pressure [1, 5] [mOsm/kg] | Osmotic pressure ([1]; saccharide concentration 0.6 M in culture medium, listed as Glycerol) [mOsm/kg] | Osmotic pressure [1, 6] [mOsm/kg] | Exposure time at which the cell death inducing effect was noticeable [2] [h] | State of differentiated cells other than cardiomyocytes (morphology) [2] | Mitochondrial membrane potential (TMRM fluorescence, FACS) [3]
OCC(O)CO [glycerol] | ~710 | 706 | ~870 | 869 | 1232 | ≥ 10 | almost all of the differentiated cells other than cardiomyocytes had been dead | –
OC[C@@H](O)[C@@H](O)[C@H](O)[C@@H](O)CO [sorbitol] | 748 | – | 922 | – | 1289 | – | – | all of the cells treated with the above-mentioned saccharides for 2 hours had lost membrane potential
OC[C@H]1O[C@@](CO)(O[C@H]2O[C@H](CO)[C@@H](O)[C@H](O)[C@H]2O)[C@@H](O)[C@@H]1O [sucrose] | 779 | – | 988 | – | 1496 | – | – | all of the cells treated with the above-mentioned saccharides for 2 hours had lost membrane potential
C[N+](C)(C)CC(=O)[O-] [trimethylglycine] | 763 | – | 965 | – | 1421 | – | – | all of the cells treated with the above-mentioned saccharides for 2 hours had lost membrane potential
OC[C@@H](O)[C@H](O)[C@@H](O)CO [xylitol] | 779 | – | 940 | – | 1230 | – | – | all of the cells treated with the above-mentioned saccharides for 2 hours had lost membrane potential

— US8735152B2, “Methods for inducing cell death in pluripotent stem cells and differentiated cells other than cardiac myocytes” (Daiichi Sankyo Company, Limited, priority 2009, dated 2014)
